Experimental findings from patent US11168086B2, “Methods of synthesizing pyrazine compounds” (Hoffmann-La Roche Inc., priority 2015, dated 2021) are described below.

In general, EC50 refers to the concentration at which the effect is half-maximal. A high value points to lower potency in that assay.

The test system of this test is HBV. The experiment in a line: HBV inhibition assay: anti-HBV activity in vitro in HepG2.2.15 cells (extracellular HBV DNA by qPCR). Conditions: Hepatitis B virus, 120 h, five days after compound treatment, extracellular HBV DNA in culture supernatant by qPCR, concentration at which HBV replication is inhibited by 50%. The test is classed as cell-based. From the text: Example 441: HBV Inhibition Assays
Cell Line and Culture Conditions:
HepG2.2.15 is a stably-transfected cell line containing the HBV genome. It is derived from the hepatoblastoma cell line Hep G2 (American Type Culture Collection, ATCC® HB-8065™) by the published procedures described in reference: MA Selles et al. Proc. Natl. Acad. Sci. USA 1987, 84, 1005-1009. The cell line was maintained in Dulbecco's modified Eagle's medium (DMEM)-F12 medium supplemented with 10% fetal bovine serum, 100 U/mL penicillin, 100 μg/mL streptomycin, and 0.5 mg/mL of G418.
Anti-HBV Activity In Vitro:
HepG2.2.15 cells were seeded into 96-well plates (3×10^4 cells in 100 μL media per well) and incubated overnight at 37° C. The test compounds were serially half-log diluted in DMSO, then diluted 100 times in culture media. 100 μL diluted compounds were added into the plates to reach 0.5% final concentration of DMSO in every well. Five days after compound treatment, culture supernatant was collected for further analysis.
For quantitative PCR detection of extracellular HBV DNA, culture supernatant was processed by Proteinase K digestion. After heat inactivation of the enzyme, the samples were subjected to HBV DNA quantification by qPCR. The effective compound concentration at which
HBV replication is inhibited by 50% (EC50) was determined.
In the case of `C[C@H]1Cn2ncc(N3CCCC3=O)c2CN1C(=O)Nc1cc(F)c(F)c(Cl)c1` [Example 231, (6S)—N-(3-chloro-4,5-difluoro-phenyl)-6-methyl-3-(2-oxopyrrolidin-1-yl)-6,7-dihydro-4H-pyrazolo[1,5-a]pyrazine-5-carboxamide], the 50% effective concentration (EC50) was determined as 25 nM.

For `C[C@H]1Cn2ncc(N3CC(O)CC3=O)c2CN1C(=O)Nc1ccc(F)c(Cl)c1` (stereo partly drawn) [Example 232, (6S)—N-(3-chloro-4-fluoro-phenyl)-3-(4-hydroxy-2-oxo-pyrrolidin-1-yl)-6-methyl-6,7-dihydro-4H-pyrazolo[1,5-a]pyrazine-5-carboxamide], the midpoint of the response, the EC50, lay at 49 nM. On to `C[C@H]1Cn2ncc(N3CCOCC3=O)c2CN1C(=O)Nc1cc(F)c(F)c(F)c1` [Example 233, (6S)-6-methyl-3-(3-oxomorpholin-4-yl)-N-(3,4,5-trifluorophenyl)-6,7-dihydro-4H-pyrazolo[1,5-a]pyrazine-5-carboxamide], for which the EC50 worked out at 76 nM. The compound `C[C@H]1Cn2ncc(N3CCOCC3=O)c2CN1C(=O)Nc1cc(F)c(F)c(Cl)c1` [Example 235, (6S)—N-(3-chloro-4,5-difluoro-phenyl)-6-methyl-3-(3-oxomorpholin-4-yl)-6,7-dihydro-4H-pyrazolo[1,5-a]pyrazine-5-carboxamide] had an EC50 of 39 nM. With `CC1Cn2ncc(N3CCOC3=O)c2CN1C(=O)Nc1ccc(F)c(Cl)c1` (centres unmarked) [Example 237, N-(3-chloro-4-fluoro-phenyl)-6-methyl-3-(2-oxooxazolidin-3-yl)-6,7-dihydro-4H-pyrazolo[1,5-a]pyrazine-5-carboxamide], a half-maximal effect (EC50) was put at 74 nM. In turn, `COC1CC(=O)N(c2cnn3c2CN(C(=O)Nc2ccc(F)c(Cl)c2)[C@@H](C)C3)C1` (stereo partly drawn) [Example 238, (6S)—N-(3-chloro-4-fluoro-phenyl)-3-(4-methoxy-2-oxo-pyrrolidin-1-yl)-6-methyl-6,7-dihydro-4H-pyrazolo[1,5-a]pyrazine-5-carboxamide] registered an EC50 of 21 nM. The compound `C[C@H]1Cn2ncc(N3CCCC3=O)c2CN1C(=O)Nc1cc(F)c(F)c(C(F)F)c1` [Example 239, (6S)—N-[3-(difluoromethyl)-4,5-difluoro-phenyl]-6-methyl-3-(2-oxopyrrolidin-1-yl)-6,7-dihydro-4H-pyrazolo[1,5-a]pyrazine-5-carboxamide] had a concentration giving a half-maximal response (EC50) of 38 nM. In turn, `C[C@H]1Cn2ncc(N3CC(C#N)CC3=O)c2CN1C(=O)Nc1cc(F)c(F)c(F)c1` (stereo partly drawn) [Example 240, (6S)-3-(4-cyano-2-oxo-pyrrolidin-1-yl)-6-methyl-N-(3,4,5-trifluorophenyl)-6,7-dihydro-4H-pyrazolo[1,5-a]pyrazine-5-carboxamide] had a concentration for a half-maximal effect (EC50) of 16 nM. The figure for `C[C@H]1Cn2ncc(N3C[C@H](C#N)CC3=O)c2CN1C(=O)Nc1cc(F)c(F)c(F)c1` [Example 240-1, (6S)-3-[(4R)-4-cyano-2-oxo-pyrrolidin-1-yl]-6-methyl-N-(3,4,5-trifluorophenyl)-6,7-dihydro-4H-pyrazolo[1,5-a]pyrazine-5-carboxamide] is 55 nM; for `C[C@H]1Cn2ncc(N3C[C@@H](C#N)CC3=O)c2CN1C(=O)Nc1cc(F)c(F)c(F)c1` [Example 240-2, (6S)-3-[(4S)-4-cyano-2-oxo-pyrrolidin-1-yl]-6-methyl-N-(3,4,5-trifluorophenyl)-6,7-dihydro-4H-pyrazolo[1,5-a]pyrazine-5-carboxamide] it is 9 nM.

`C[C@H]1Cn2ncc(N3CC(C(F)(F)F)CC3=O)c2CN1C(=O)Nc1ccnc(C(F)F)c1` (stereo partly drawn) [Example 241, (6S)—N-[2-(difluoromethyl)-4-pyridyl]-6-methyl-3-[2-oxo-4-(trifluoromethyl)pyrrolidin-1-yl]-6,7-dihydro-4H-pyrazolo[1,5-a]pyrazine-5-carboxamide]: a half-maximal effect (EC50) was put at 75 nM. This EC50 is about 8.3-fold higher than that of the compound before. In the case of `CC1CN(c2cnn3c2CN(C(=O)Nc2cc(F)c(F)c(F)c2)[C@@H](C)C3)C(=O)CO1` (stereo partly drawn) [Example 243, (6S)-6-methyl-3-(2-methyl-5-oxo-morpholin-4-yl)-N-(3,4,5-trifluorophenyl)-6,7-dihydro-4H-pyrazolo[1,5-a]pyrazine-5-carboxamide], the concentration for a half-maximal effect (EC50) turned out to be 31 nM. `C[C@H]1Cn2ncc(N3CC(C)(C)NC3=O)c2CN1C(=O)Nc1ccc(F)c(Cl)c1` [Example 245, (6S)—N-(3-chloro-4-fluoro-phenyl)-3-(4,4-dimethyl-2-oxo-imidazolidin-1-yl)-6-methyl-6,7-dihydro-4H-pyrazolo[1,5-a]pyrazine-5-carboxamide] gave an EC50 of 53 nM.

The compound `C[C@H]1Cn2ncc(N3CC(c4cnco4)CC3=O)c2CN1C(=O)Nc1cc(F)c(F)c(F)c1` (stereo partly drawn) [Example 247, (6S)-6-methyl-3-(4-oxazol-5-yl-2-oxo-pyrrolidin-1-yl)-N-(3,4,5-trifluorophenyl)-6,7-dihydro-4H-pyrazolo[1,5-a]pyrazine-5-carboxamide] registered an EC50 of 14 nM. The figure for `C[C@H]1Cn2ncc(N3CN(S(C)(=O)=O)CC3=O)c2CN1C(=O)Nc1cc(F)c(F)c(F)c1` [Example 248, (6S)-6-methyl-3-(3-methylsulfonyl-5-oxo-imidazolidin-1-yl)-N-(3,4,5-trifluorophenyl)-6,7-dihydro-4H-pyrazolo[1,5-a]pyrazine-5-carboxamide] is 93 nM. On to `C[C@H]1Cn2ncc(N3CC(C)(C)OC3=O)c2CN1C(=O)Nc1cc(F)c(F)c(F)c1` [Example 250, (6S)-3-(5,5-dimethyl-2-oxo-oxazolidin-3-yl)-6-methyl-N-(3,4,5-trifluorophenyl)-6,7-dihydro-4H-pyrazolo[1,5-a]pyrazine-5-carboxamide], for which the EC50 is 21 nM. Against the preceding compound, the EC50 is about 4.4-fold lower. As for `C[C@H]1[C@H](C)n2ncc(N3CCCC3=O)c2CN1C(=O)Nc1cc(F)c(F)c(F)c1` [Example 251, (6S,7S)-6,7-dimethyl-3-(2-oxopyrrolidin-1-yl)-N-(3,4,5-trifluorophenyl)-6,7-dihydro-4H-pyrazolo[1,5-a]pyrazine-5-carboxamide], the EC50 came to 45 nM. Consider `C[C@H]1Cn2ncc(N3CC4(CC4)CC3=O)c2CN1C(=O)Nc1cc(F)c(F)c(F)c1` [Example 252, (6S)-6-methyl-3-(6-oxo-5-azaspiro[2.4]heptan-5-yl)-N-(3,4,5-trifluorophenyl)-6,7-dihydro-4H-pyrazolo[1,5-a]pyrazine-5-carboxamide], for which the half-maximal effective concentration (EC50) is 15 nM. In the case of `C[C@H]1Cn2ncc(N3CC4CC4C3=O)c2CN1C(=O)Nc1cc(F)c(F)c(F)c1` (stereo partly drawn) [Example 253, (6S)-6-methyl-3-(2-oxo-3-azabicyclo[3.1.0]hexan-3-yl)-N-(3,4,5-trifluorophenyl)-6,7-dihydro-4H-pyrazolo[1,5-a]pyrazine-5-carboxamide], the EC50 stood at 44 nM. For the compound `CC1CC(=O)N(c2cnn3c2CN(C(=O)Nc2ccc(F)c(Cl)c2)[C@@H](C)C3)C1` (stereo partly drawn) [Example 254, (6S)—N-(3-chloro-4-fluoro-phenyl)-6-methyl-3-(4-methyl-2-oxo-pyrrolidin-1-yl)-6,7-dihydro-4H-pyrazolo[1,5-a]pyrazine-5-carboxamide], the response was half-maximal at 39 nM (EC50). `C[C@H]1Cn2ncc(N3CC(C(F)(F)F)CC3=O)c2CN1C(=O)Nc1ccc(F)c(Cl)c1` (stereo partly drawn) [Example 255, (6S)—N-(3-chloro-4-fluoro-phenyl)-6-methyl-3-[2-oxo-4-(trifluoromethyl)pyrrolidin-1-yl]-6,7-dihydro-4H-pyrazolo[1,5-a]pyrazine-5-carboxamide] gave an EC50 of 28 nM. `C[C@H]1Cn2ncc(N3CCC(O)C3=O)c2CN1C(=O)Nc1ccc(F)c(Cl)c1` (stereo partly drawn) [Example 256, (6S)—N-(3-chloro-4-fluoro-phenyl)-3-(3-hydroxy-2-oxo-pyrrolidin-1-yl)-6-methyl-6,7-dihydro-4H-pyrazolo[1,5-a]pyrazine-5-carboxamide] came in with an EC50 of 68 nM. Turning to `C[C@H]1Cn2ncc(N3CC(C)(C)CC3=O)c2CN1C(=O)Nc1ccc(F)c(Cl)c1` [Example 257, (6S)—N-(3-chloro-4-fluoro-phenyl)-3-(4,4-dimethyl-2-oxo-pyrrolidin-1-yl)-6-methyl-6,7-dihydro-4H-pyrazolo[1,5-a]pyrazine-5-carboxamide], the EC50 was found to be 15 nM. Compound `C[C@H]1Cn2ncc(N3CC(C(F)(F)F)CC3=O)c2CN1C(=O)Nc1cc(F)c(F)c(F)c1` (stereo partly drawn) [Example 259, (6S)-6-methyl-3-[2-oxo-4-(trifluoromethyl)pyrrolidin-1-yl]-N-(3,4,5-trifluorophenyl)-6,7-dihydro-4H-pyrazolo[1,5-a]pyrazine-5-carboxamide] had an EC50 of 23 nM. This EC50 lies about 1.5-fold higher than the previous one. `C[C@@H]1[C@H](C)N(C(=O)Nc2cc(F)c(F)c(F)c2)Cc2c(N3CCCC3=O)cnn21` [Example 261, (6S,7R)-6,7-dimethyl-3-(2-oxopyrrolidin-1-yl)-N-(3,4,5-trifluorophenyl)-6,7-dihydro-4H-pyrazolo[1,5-a]pyrazine-5-carboxamide] yielded a 50% effective concentration (EC50) of 40 nM.

`C[C@H]1Cn2ncc(N3CC[C@H](O)C3=O)c2CN1C(=O)Nc1cc(F)c(F)c(F)c1` [Example 262, (6S)-3-[(3S)-3-hydroxy-2-oxo-pyrrolidin-1-yl]-6-methyl-N-(3,4,5-trifluorophenyl)-6,7-dihydro-4H-pyrazolo[1,5-a]pyrazine-5-carboxamide] gave an EC50 of 65 nM.
